The text below walks through data of ChEMBL document CHEMBL5370665, “Insight from Linker Investigations: Discovery of a Novel Phenylbenzothiazole Necroptosis Inhibitor Targeting Receptor-Interacting Protein Kinase 1 (RIPK1) from a Phenoxybenzothiazole Compound with Dual RIPK1/3 Targeting Activity” (J Med Chem, 2023).

Calls of active or inactive are those of the source. The calls are words filed in the database; no cut-off is given here.

Data set [1] concerns the target T1, Receptor-interacting serine/threonine-protein kinase 1 (Homo sapiens, UniProt Q13546).
T1 sequence (Q13546 whole entry): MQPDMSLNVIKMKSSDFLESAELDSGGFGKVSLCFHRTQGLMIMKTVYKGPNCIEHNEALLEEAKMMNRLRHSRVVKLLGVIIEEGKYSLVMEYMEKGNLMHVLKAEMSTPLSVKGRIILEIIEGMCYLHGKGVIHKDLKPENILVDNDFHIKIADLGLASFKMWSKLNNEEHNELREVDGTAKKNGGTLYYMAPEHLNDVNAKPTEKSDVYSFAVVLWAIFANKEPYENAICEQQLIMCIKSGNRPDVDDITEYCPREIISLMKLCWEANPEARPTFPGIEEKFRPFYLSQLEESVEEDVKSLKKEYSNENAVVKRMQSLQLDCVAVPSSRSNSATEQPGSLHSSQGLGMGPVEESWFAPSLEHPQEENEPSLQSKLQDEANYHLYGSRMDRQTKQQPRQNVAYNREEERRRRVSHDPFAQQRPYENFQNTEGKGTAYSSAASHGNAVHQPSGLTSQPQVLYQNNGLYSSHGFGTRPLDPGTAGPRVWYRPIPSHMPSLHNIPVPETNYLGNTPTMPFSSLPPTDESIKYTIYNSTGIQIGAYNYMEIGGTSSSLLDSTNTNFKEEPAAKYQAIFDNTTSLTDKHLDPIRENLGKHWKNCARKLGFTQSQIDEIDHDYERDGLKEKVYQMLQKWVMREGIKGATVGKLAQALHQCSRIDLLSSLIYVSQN
The experiment in a line: Binding affinity to recombinant RIPK1 (unknown origin) assessed as dissociation constant incubated for 1 hr by KINOMEscanTM assay.

The nature of data set [2]: Cytotoxicity against human HT-29 cells assessed as reduction in cell viability incubated for 16 to 24 hrs by CellTiter-Glo Luminescent cell viability assay. The class given is toxicity, cell-based. Particulars: time 16-24 hrs. (In general: Cellular ATP, detected with luciferase, serves as a proxy for viable cell number.)
Data set [3] relates to HT-29. The experiment in a line: Anti-necroptic activity against human HT-29 cells assessed as inhibition of TCZ (human TNFalpha, cycloheximide and z-VAD-FMK) induced necroptosis at 125 to 500 nM pretreated with compound followed by TCZ stimulation for 18 hrs by CellTiter-Glo Luminescent cell viability assay. Format: functional, cell-based. Particulars: dose 125-500 nM.
Another data set deals with L929. The experiment in a line: Anti-necroptic activity against mouse L929 cells assessed as inhibition of […] (mouse TNFalpha, z-VAD-FMK) induced necroptosis at 15 to 500 nM pretreated with compound followed by TZ stimulation for 6 hrs by CellTiter-Glo Luminescent cell viability assay. The class given is functional, cell-based. The settings on record: dose lower […], dose upper 500.0 nM.

Data set [4] concerns HT-29. The experiment in a line: Anti-apoptotic activity against human HT-29 cells assessed as inhibition of TC (human TNFalpha, cycloheximide) induced apoptosis upto 1 uM pretreated with compound followed by TC stimulation for 36 hrs by CellTiter-Glo Luminescent cell viability assay. The class given is functional, cell-based.
The target in data set [5] is T2, Receptor-interacting serine/threonine-protein kinase 3 (Homo sapiens, UniProt Q9Y572). The experiment in a line: Inhibition of RIPK3 phosphorylation in TSZ induced human HT-29 cells at 1 uM pretreated with compound followed by TSZ stimulation for 6 hrs by Western blot analysis. The class given is cell-based. A general note: Immunoblotting shows a protein as a band on a membrane.
T2 sequence (Q9Y572 whole entry, looked up): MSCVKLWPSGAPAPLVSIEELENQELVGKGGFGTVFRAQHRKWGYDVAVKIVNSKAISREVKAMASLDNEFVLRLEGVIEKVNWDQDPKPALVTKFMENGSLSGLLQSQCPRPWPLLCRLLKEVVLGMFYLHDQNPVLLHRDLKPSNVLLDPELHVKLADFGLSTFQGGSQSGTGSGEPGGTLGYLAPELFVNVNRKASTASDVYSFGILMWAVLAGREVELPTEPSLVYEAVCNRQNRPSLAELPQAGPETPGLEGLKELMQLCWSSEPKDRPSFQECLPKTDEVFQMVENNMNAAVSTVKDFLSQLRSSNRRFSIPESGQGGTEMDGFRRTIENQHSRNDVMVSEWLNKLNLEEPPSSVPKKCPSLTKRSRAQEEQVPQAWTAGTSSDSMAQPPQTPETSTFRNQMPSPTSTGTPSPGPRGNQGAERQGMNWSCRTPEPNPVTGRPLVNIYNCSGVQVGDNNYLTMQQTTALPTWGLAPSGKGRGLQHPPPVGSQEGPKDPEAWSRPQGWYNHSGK

The target in data set [6] is T3, Receptor-interacting serine/threonine-protein kinase 1 (Homo sapiens) (UniProt Q13546).
T3 sequence (whole entry): T1 sequence (Q13546 whole entry)
The experiment in a line: Inhibition of RIPK1 phosphorylation in TSZ induced human HT-29 cells at 1 to 1000 nM pretreated with compound followed by TSZ stimulation for 6 hrs by Western blot analysis. Format: cell-based. Particulars: dose 1-1000 nM.

For data set [7], the target named is T2, Receptor-interacting serine/threonine-protein kinase 3. The experiment in a line: Inhibition of RIPK3 phosphorylation in TSZ induced human HT-29 cells at 1 to 1000 nM pretreated with compound followed by TSZ stimulation for 6 hrs by Western blot analysis. The class given is cell-based. Particulars: dose 1-1000 nM.
Data set [8] deals with Mus musculus. The experiment in a line: Anti-inflammatory activity against C57BL/6J mouse model of TNFalpha-induced systemic inflammatory response syndrome (SIRS) assessed as increase in body temperature at 1.25 mg/kg,po 2 hrs prior to mTNFalpha and z-VAD-FMK stimulation and measured upto 18 hrs by electric thermometer analysis. Particulars: time 20.0 hrs. The class given is functional, organism-based.

In data set [9] the test system is Mus musculus. The experiment in a line: Anti-inflammatory activity against C57BL/6J mouse model of TNFalpha-induced systemic inflammatory response syndrome (SIRS) assessed as increase in body temperature at 5 mg/kg,po 2 hrs prior to mTNFalpha and z-VAD-FMK stimulation and measured upto 18 hrs by electric thermometer analysis. Particulars: time 20.0 hrs. The class given is functional, organism-based.

For data set [10], the system named is Mus musculus. The experiment in a line: Anti-inflammatory activity against C57BL/6J mouse model of TNFalpha-induced systemic inflammatory response syndrome (SIRS) assessed as increase in survival rate at 1.25 mg/kg,po 2 hrs prior to mTNFalpha and z-VAD-FMK stimulation and measured upto 24 hrs. Format: functional. The settings on record: time 26 hrs.
Data set [11] concerns Mus musculus. The experiment in a line: Anti-inflammatory activity against C57BL/6J mouse model of TNFalpha-induced systemic inflammatory response syndrome (SIRS) assessed as decrease in IL-6 level in lung at 1.25 to 5 mg/kg,po 2 hrs prior to mTNFalpha and z-VAD-FMK stimulation for 8 hrs by ELISA. Particulars: dose 1.25-5 mg/kg, time 10.0 hrs. The class given is functional, organism-based. Background: In an ELISA, binding on a coated surface is turned into a signal by an enzyme label.

Data set [12] relates to Mus musculus. The experiment in a line: Anti-inflammatory activity against C57BL/6J mouse model of TNFalpha-induced systemic inflammatory response syndrome (SIRS) assessed as decrease in IL-6 level in brain at 1.25 to 5 mg/kg,po 2 hrs prior to mTNFalpha and z-VAD-FMK stimulation for 8 hrs by ELISA. Format: functional, organism-based. Particulars: dose 1.25-5 mg/kg, time 10.0 hrs.

Data set [13] concerns Mus musculus. The experiment in a line: Anti-inflammatory activity against C57BL/6J mouse model of TNFalpha-induced systemic inflammatory response syndrome (SIRS) assessed as decrease in IL-1beta level in brain at 1.25 to 5 mg/kg,po 2 hrs prior to mTNFalpha and z-VAD-FMK stimulation for 8 hrs by ELISA. Format: functional, organism-based. The settings on record: dose 1.25-5 mg/kg, time 10.0 hrs.

Data set [14] relates to Mus musculus. The experiment in a line: Anti-inflammatory activity against C57BL/6J mouse model of TNFalpha-induced systemic inflammatory response syndrome (SIRS) assessed as decrease in IL-1beta level in liver at 1.25 to 5 mg/kg,po 2 hrs prior to mTNFalpha and z-VAD-FMK stimulation for 8 hrs by ELISA. Format: functional, organism-based. The settings on record: dose 1.25-5 mg/kg, time 10.0 hrs.

The test system of data set [15] is Mus musculus. The experiment in a line: Anti-inflammatory activity against C57BL/6J mouse model of TNFalpha-induced systemic inflammatory response syndrome (SIRS) assessed as decrease in IL-1beta level in lung at 1.25 to 5 mg/kg,po 2 hrs prior to mTNFalpha and z-VAD-FMK stimulation for 8 hrs by ELISA. Format: functional, organism-based. Particulars: dose 1.25-5 mg/kg, time 10.0 hrs.

Data set [16] deals with Mus musculus. The experiment in a line: Anti-inflammatory activity against C57BL/6J mouse model of TNFalpha-induced systemic inflammatory response syndrome (SIRS) assessed as decrease in serum IL-6 level at 5 mg/kg,po 2 hrs prior to mTNFalpha and z-VAD-FMK stimulation for 8 hrs by ELISA. The class given is functional, organism-based. Particulars: time 10.0 hrs.
Data set [17] in a line: Metabolic stability in human liver mitochondria assessed as degradation rate at 4 micromol/L and measured upto 240 mins. Particulars: 4 h, 4 µM, dose 4 µmol/L. The class given is ADME.
A short description of data set [18]: Acute toxicity in mouse assessed as death at 100 to 200 mg/kg,IG and measured upto 14 days. The class given is organism-based. The settings on record: in vivo, po, 336 h, dose 100-200 mg/kg, time < 14 day.
A short description of data set [19]: Acute toxicity in mouse assessed as body weight loss at 100 to 200 mg/kg,IG and measured upto 14 days. The class given is organism-based. Particulars: in vivo, po, 336 h, dose 100-200 mg/kg, time < 14 day.
Data set [20] in a line: Acute toxicity in mouse assessed as pathological damage in lung at 100 to 200 mg/kg,IG and measured after 14 days by H and E staining based microscopy. The class given is organism-based. Particulars: in vivo, po, 336 h, dose 100-200 mg/kg, time 14 day.

For `O=C(Cc1cccc(OC(F)(F)F)c1)Nc1cc(-c2ccc3nc(NC(=O)C4CC4)sc3c2)ccc1F`, in [1], the Kd (in general, the concentration at which binding is half-saturated) was found to be 17 nM. In data set [2], the CC50 – broadly, the concentration that lowers cell viability or growth by half – was greater than 10 µM. The Activity result in the data set with HT-29 [3] was “Dose-Dependent Effect”; with Mus musculus [11] it was “Dose-Dependent Effect”; with Mus musculus [12] it was “Dose-Dependent Effect”; in data set [18], “Non-Toxic”; in data set [19], “Non-Toxic”; in data set [20], “Non-Toxic”. In addition, the result with L929, in the data set on Mus musculus [8], in the data set with Mus musculus [9], with Mus musculus [15] and in the data set with Mus musculus [16] was Active. Moreover, the result in the data set on HT-29 [4], in the data set on Mus musculus [13] and in the data set with Mus musculus [14] was inactive. For the same compound, the inhibition entry in [5] is “Active”. In addition, the inhibition entry in [6] and in data set [7] was “Dose-Dependent Effect” each time. In addition, the survival at 1.25 mg/kg in the data set on Mus musculus [10] stood at 70%. For the same compound, in data set [17], the Stability result is given as “Stable”.
